Test results published in patent US11738031B2, “Compositions and methods for preventing or treating muscle conditions” (The Board of Trustees of the Leland Stanford Junior …, priority 2017, dated 2023).
Entries after “also recorded” stand apart in the source; their conditions may differ.

Legend:
aged MuSCs = test: Aged MuSC proliferation in culture; type: cell-based, mouse
Method: Muscle stem cell culture, treatment and lentiviral infection: Following isolation, we resuspended MuSCs in myogenic cell culture medium containing DMEM/F10 (50:50), 15% FBS, 2.5 ng ml^−1 fibroblast growth factor-2 (FGF-2 also known as bFGF) and 1% penicillin-streptomycin. We seeded MuSC suspensions at a density of 500 cells per cm^2 surface area. We maintained cell cultures at 37° C. in 5% CO2 and changed medium daily. For PGE2, 15-PGDH inhibitor and EP4 receptor antagonist treatment studies, we added 1-200 ng/ml Prostaglandin E2 (Cayman Chemical) (unless specified in the figure legends, 10 ng/ml was the standard concentration used), and/or 1 μM EP4 antagonist (ONO-AE3-208, Cayman Chemical), or 1 μM 15-PGDH inhibitor (SW033291, Cayman Chemical) to the MuSCs cultured on collagen coated dishes for the first 24 h. The cells were then trypsinized and cells reseeded onto hydrogels for an additional 6 days of culture. All treatments were compared to their solvent (DMSO) vehicle control. For stripped serum assays, we resuspended isolated MuSCs in medium containing DMEM/F10 (50:50), 15% charcoal stripped FBS (Gibco, cat #12676011), 2.5 ng ml^−1 bFGF and 1% penicillin-streptomycin. […]
Proliferation assays: To assay proliferation, we used three different assays (hemocytometer, VisionBlue, and EdU). […] For hemocytometer cell number count, we collected cells at indicated timepoints by incubation with 0.5% trypsin in PBS for 5 min at 37° C. and quantified them using a hemocytometer at least 3 times. Additionally, we used the VisionBlue Quick Cell Viability Fluorometric Assay Kit (BioVision, catalog #K303) as a readout for cell growth in culture. Briefly, we incubated MuSCs with 10% VisionBlue in culture medium for 3 h, and measured fluorescence intensity on a fluorescence plate reader (Infinite M1000 PRO, Tecan) at Ex=530-570 nm, Em=590-620 nm. […] We quantified EdU positive cells using the MetaMorph Image Analysis software (Molecular Devices). Data analyses were blinded, where researchers performing cell scoring were unaware of the treatment condition given to sample groups analyzed.

MuSCs = test: EdU incorporation proliferation assay; type: cell-based, mouse; details: PGE2 10 ng/ml for 24 h, EdU 1 hr
Method: Proliferation assays: To assay proliferation, we used three different assays (hemocytometer, VisionBlue, and EdU). For each, we seeded MuSCs on flat hydrogels (hemocytometer and VisionBlue) or collagen-coated plates (EdU assay) at a density of 500 cells per cm^2 surface area. For hemocytometer cell number count, we collected cells at indicated timepoints by incubation with 0.5% trypsin in PBS for 5 min at 37° C. and quantified them using a hemocytometer at least 3 times. Additionally, we used the VisionBlue Quick Cell Viability Fluorometric Assay Kit (BioVision, catalog #K303) as a readout for cell growth in culture. Briefly, we incubated MuSCs with 10% VisionBlue in culture medium for 3 h, and measured fluorescence intensity on a fluorescence plate reader (Infinite M1000 PRO, Tecan) at Ex=530-570 nm, Em=590-620 nm. […] We quantified EdU positive cells using the MetaMorph Image Analysis software (Molecular Devices). Data analyses were blinded, where researchers performing cell scoring were unaware of the treatment condition given to sample groups analyzed.
To assay proliferation, we used three different assays (hemocytometer, VisionBlue, and EdU). […] For hemocytometer cell number count, we collected cells at indicated timepoints by incubation with 0.5% trypsin in PBS for 5 min at 37° C. and quantified them using a hemocytometer at least 3 times. […]

[1] = system: cyclic AMP levels in MuSCs; test: cAMP activity assay (cAMP-Glo); type: cell-based, mouse; details: PGE2 10 ng/ml, 1 hr
Method: cAMP activity assay: MuSCs were treated with DMSO (vehicle) or PGE2 (10 ng/ml) for 1 h and cyclic AMP levels measured according to the cAMP-Glo Assay protocol optimized by the manufacturer (Promega). Each sample was assayed in triplicate and in two independent experiments.
MuSCs were treated with DMSO (vehicle) or PGE2 (10 ng/ml) for 1 h and cyclic AMP levels measured according to the cAMP-Glo Assay protocol optimized by the manufacturer (Promega). Each sample was assayed in triplicate and in two independent experiments.

[2] = system: prostaglandin receptors (Ptger1-4); test: Quantitative RT-PCR of prostaglandin receptors in MuSCs; type: cell-based, mouse; details: 24 hr PGE2 treatment of MuSCs
Method: Quantitative RT-PCR: We isolated RNA from MuSCs using the RNeasy Micro Kit (Qiagen). […] We reverse-transcribed cDNA from total mRNA from each sample using the SensiFAST™ cDNA Synthesis Kit (Bioline). We subjected cDNA to RT-PCR using SYBR Green PCR Master Mix (Applied Biosystems) or TaqMan Assays (Applied Biosystems) in an ABI 7900HT Real-Time PCR System (Applied Biosystems). We cycled samples at 95° C. for 10 min and then 40 cycles at 95° C. for 15 s and 60° C. for 1 min. […] For SYBR Green qRT-PCR, we used the following primer sequences: Gapdh, forward 5′-[sequence]-3′ (SEQ ID NO: 1), reverse 5′-[sequence]-3′ (SEQ ID NO: 2); Hpgd, forward 5′-[sequence]-3′ (SEQ ID NO: 3), reverse 5′-[sequence]-3′ (SEQ ID NO: 4); Ptges, forward 5′-[sequence]-3′ (SEQ ID NO: 5), reverse 5′-[sequence]-3′ (SEQ ID NO: 6); Ptges2, forward 5′-[sequence]-3′ (SEQ ID NO: 7), reverse 5′-[sequence]-3′ (SEQ ID NO: 8); Ptger1, forward 5′ [sequence]-3′ (SEQ ID NO: 9), reverse, 5′ [sequence]-3′ (SEQ ID NO: 10), and Ptger2, forward 5′-[sequence]-3′ (SEQ ID NO: 11), reverse 5′-[sequence]-3′ (SEQ ID NO: 12). TaqMan Assays (Applied Biosystems) were used to quantify Pax7, Myogenin, Slco2a1 (PGT), Ptger3 and Ptger4 in samples according to the manufacturer instructions with the TaqMan Universal PCR Master Mix reagent kit (Applied Biosystems). Transcript levels were expressed relative to Gapdh levels. […]

TA muscles = test: In vivo muscle force after downhill treadmill exercise, aged mice, TA; parameters: species or system mouse; details: aged (18-22 mo) mice, 10 μg PGE2 after each run in week 1, force at week 5
Method: FIGS. 5Q and 5R show twitch force and tetanic force data, respectively, from a separate experiment in which mice were treated with PGE2 or vehicle only. Importantly, we observed an increase in isometric force in aged (18-22 mo) mice injected with PGE2 and subjected to downhill treadmill exercise. Briefly, aged mice ran daily (at 20 degrees downhill and 14 meter/min maximum speed for 10 min) for 5 days and rested on days 6 and 7. This eccentric exercise regime leads to MuSC expansion due to a cycle of muscle degeneration and regeneration. […] During week 2, mice were subjected to 5 days treadmill run only.

Q: Which results are given for CCCCC[C@H](O)/C=C/[C@H]1[C@H](O)CC(=O)[C@@H]1C/C=C\CCCC(=O)O [PGE2, prostaglandin E2]?
A: aged MuSC proliferation in charcoal stripped serum medium (aged MuSCs; PGE2 10 ng/ml every two days for 7 days): rescued by addition of PGE2 alone; aged MuSC proliferation and Pax7 expression after 1-day pulse (aged MuSCs; PGE2 10 ng/ml or SW033291 1 μM, 24 hr, assayed at day 7): characteristic increase in proliferation and maintenance of Pax7 expression; cell division assayed by EdU incorporation (MuSCs): increased cell division; also recorded: increase in cell division; intracellular cAMP levels [1]: elevated downstream intracellular cyclic AMP (cAMP) levels; transcript levels of prostaglandin receptors (Ptger1-4) after PGE2 treatment [2]: only receptors upregulated after PGE2 treatment of MuSCs are Ptger1 and Ptger4; also recorded: the most highly expressed receptor in MuSCs is Ptger4; force (twitch and tetanic) of TA muscles (TA muscles): significant increase in force
